Results from US8377980B2, “Hepatitis C virus inhibitors” (Bristol-Myers Squibb Company, priority 2009, dated 2013).

Test system: HCV 1b genotype
Assay: HCV Replicon assay (HCV 1b genotype)
Format: cell-based
Details: Hepatitis C virus; HCV 1b genotype replicon; Effective 50% inhibitory concentration; read-out: EC50
Method: An HCV Replicon assay was utilized in the present disclosure, and was prepared, conducted and validated as described in commonly owned PCT/US2006/022197 and in O'Boyle et al., Antimicrob. Agents Chemother., 49(4):1346-1353 (April 2005). Assay methods incorporating luciferase reporters have also been used as described (Apath.com).
HCV-neo replicon cells and replicon cells containing resistance substitutions in the NS5A region were used to test the currently described family of compounds. The compounds were determined to have differing degrees of reduced inhibitory activity on cells containing mutations vs. the corresponding inhibitory potency against wild-type cells. Thus, the compounds of the present disclosure can be effective in inhibiting the function of the HCV NS5A protein and are understood to be as effective in combinations as previously described in application PCT/US2006/022197 and commonly owned WO 04/014852. It should be understood that the compounds of the present disclosure can inhibit multiple genotypes of HCV. […] In one embodiment, compounds of the present disclosure are inhibitory versus 1a, 1b, 2a, 2b, 3a, 4a, and 5a genotypes. EC50 values against HCV 1b are as follows.

Compared with `CC[C@H](NC(=O)OC)C(=O)N1[C@@H]2C[C@@H]2C[C@H]1c1nc(Cl)c(-c2ccc(-c3ccc(-c4[nH]c([C@@H]5C[C@H]6C[C@H]6N5C(=O)[C@@H](NC(=O)OC)C5CCOCC5)nc4Cl)cc3)cc2)[nH]1` [Example V9], `COC(=O)NC(C(=O)N1[C@@H]2C[C@@H]2C[C@H]1c1nc(-c2ccc(-c3ccc(-c4c[nH]c([C@@H]5C[C@H]6C[C@H]6N5C(=O)[C@@H](NC(=O)OC)[C@H]5CCCOC5)n4)cc3)cc2)c(Cl)[nH]1)[C@H]1CCCOC1` (stereo partly shown) [ZY6] is 4-fold higher in EC50: 0.0027 nM for the first, 0.0108 nM for the second. The first is the more potent here.

Same assay, conditions: Hepatitis C virus; HCV 1b genotype replicon; range class; read-out: EC50-Range

`COC(=O)N[C@H](C(=O)N1[C@@H](C)CC[C@H]1c1nc(-c2ccc(-c3ccc(-c4nc([C@@H]5CC[C@H](C)N5C(=O)[C@@H](NC(=O)OC)C5CCOCC5)[nH]c4F)cc3)cc2)c(F)[nH]1)C1CCOCC1` [DSTL-10] and `COC(=O)N[C@H](C(=O)N1[C@@H](C)CC[C@H]1c1nc(-c2ccc(-c3ccc(-c4nc([C@@H]5CC[C@H](C)N5C(=O)[C@@H](NC(=O)OC)C5CCOCC5)[nH]c4F)cc3)cc2)c[nH]1)C1CCOCC1` [DSTL-9] fall in the same range of EC50: 0.001 to 0.01 nM for the first, 0.001 to 0.01 nM for the second.

`CC[C@H](NC(=O)OC)C(=O)N1[C@@H]2C[C@@H]2C[C@H]1c1nc(Cl)c(-c2ccc(-c3ccc(-c4[nH]c([C@@H]5C[C@H]6C[C@H]6N5C(=O)[C@@H](NC(=O)OC)C5CCOCC5)nc4Cl)cc3)cc2)[nH]1` [Example V9] and `CC[C@H](NC(=O)OC)C(=O)N1[C@@H]2C[C@@H]2C[C@H]1c1nc(Cl)c(-c2ccc(-c3ccc(-c4[nH]c([C@@H]5C[C@H]6C[C@H]6N5C(=O)[C@H](CC)NC(=O)OC)nc4Cl)cc3)cc2)[nH]1` [Example V3] fall in the same range of EC50: 0.001 to 0.01 nM for the first, 0.001 to 0.01 nM for the second.

`COC(=O)N[C@H](C(=O)N1[C@@H]2C[C@@H]2C[C@H]1c1nc(-c2ccc(-c3ccc(-c4nc([C@@H]5C[C@H]6C[C@H]6N5C(=O)[C@@H](NC(=O)OC)C5CCOCC5)[nH]c4F)cc3)cc2)c(F)[nH]1)C1CCOCC1` [DSTL-7] and `COC(=O)N[C@H](C(=O)N1[C@@H]2C[C@@H]2C[C@H]1c1nc(-c2ccc(-c3ccc(-c4nc([C@@H]5C[C@H]6C[C@H]6N5C(=O)[C@@H](NC(=O)OC)C5CCOCC5)[nH]c4F)cc3)cc2)c[nH]1)C1CCOCC1` [DSTL-6] fall in the same range of EC50: 0.001 to 0.01 nM for the first, 0.001 to 0.01 nM for the second.

Compared with `COC(=O)N[C@H](C(=O)N1[C@@H]2C[C@@H]2C[C@H]1c1nc(-c2ccc(-c3ccc4c(ccc5[nH]c([C@@H]6C[C@H]7C[C@H]7N6C(=O)[C@@H](NC(=O)OC)C6CCOCC6)nc54)c3)cc2)c(Cl)[nH]1)C1CCOCC1` [DSTL-2], `COC(=O)N[C@H](C(=O)N1[C@@H](C)CC[C@H]1c1nc(-c2ccc(-c3ccc4c(ccc5[nH]c([C@@H]6CC[C@H](C)N6C(=O)[C@@H](NC(=O)OC)C6CCOCC6)nc54)c3)cc2)c(Cl)[nH]1)C1CCOCC1` [JLR-5] is lower in EC50: 0.01 to 0.1 nM for the first, 0.001 to 0.01 nM for the second.

`COC(=O)N[C@H](C(=O)N1C2C[C@@H]2C[C@H]1c1nc(-c2ccc(-c3ccc(-c4nc([C@@H]5CC6C[C@H]6N5C(=O)[C@@H](NC(=O)OC)C5CCOCC5)[nH]c4C#N)cc3)cc2)c[nH]1)C1CCOCC1` (stereo partly shown) [DSTL-12] and `COC(=O)NC(C(=O)N1[C@@H]2C[C@@H]2C[C@H]1c1nc(-c2ccc(-c3ccc(-c4c[nH]c([C@@H]5C[C@H]6C[C@H]6N5C(=O)[C@@H](NC(=O)OC)[C@H]5CCCOC5)n4)cc3)cc2)c(Cl)[nH]1)[C@H]1CCCOC1` (stereo partly shown) [ZY6] fall in the same range of EC50: 0.01 to 0.1 nM for the first, 0.01 to 0.1 nM for the second.

`COC(=O)N[C@H](C(=O)N1C[C@@H](C)C[C@H]1c1nc(Cl)c(-c2ccc(-c3ccc(-c4[nH]c([C@@H]5C[C@H](C)CN5C(=O)[C@@H](NC(=O)OC)C(C)C)nc4Cl)cc3)cc2)[nH]1)C(C)C` [GW8] and `COC(=O)N[C@H](C(=O)N1C[C@@H](C)C[C@H]1c1ncc(-c2ccc(-c3ccc(-c4[nH]c([C@@H]5C[C@H](C)CN5C(=O)[C@@H](NC(=O)OC)C(C)C)nc4Cl)cc3)cc2)[nH]1)C(C)C` [GW3] fall in the same range of EC50: 0.001 to 0.01 nM for the first, 0.001 to 0.01 nM for the second.

`COC(=O)N[C@H](C(=O)N1[C@@H](C)CC[C@H]1c1ncc(-c2ccc(-c3ccc(-c4[nH]c([C@@H]5CC[C@H](C)N5C(=O)[C@@H](NC(=O)OC)C(C)C)nc4Cl)cc3)cc2)[nH]1)C(C)C` [GW2] and `COC(=O)N[C@H](C(=O)N1CCC[C@H]1c1ncc(-c2ccc(-c3ccc(-c4[nH]c([C@@H]5CCCN5C(=O)[C@@H](NC(=O)OC)C(C)C)nc4C4CC4)cc3)cc2)[nH]1)C(C)C` [OL7] fall in the same range of EC50: 0.001 to 0.01 nM for the first, 0.001 to 0.01 nM for the second.

`CC[C@H](NC(=O)OC)C(=O)N1[C@@H]2C[C@@H]2C[C@H]1c1ncc(-c2ccc(-c3ccc(-c4[nH]c([C@@H]5C[C@H]6C[C@H]6N5C(=O)[C@H](CC)NC(=O)OC)nc4Cl)cc3)cc2)[nH]1` [Example V1] and `COCC[C@H](NC(=O)OC)C(=O)N1[C@@H]2C[C@@H]2C[C@H]1c1nc(-c2ccc(-c3ccc(-c4nc([C@@H]5C[C@H]6C[C@H]6N5C(=O)[C@H](CCOC)NC(=O)OC)[nH]c4Cl)cc3)cc2)c[nH]1` [ZY8] fall in the same range of EC50: 0.001 to 0.01 nM for the first, 0.001 to 0.01 nM for the second.

`COC(=O)N[C@H](C(=O)N1CCC[C@H]1c1nc(-c2ccc(-c3ccc(-c4nc([C@@H]5CCCN5C(=O)[C@@H](NC(=O)OC)C(C)C)[nH]c4Br)cc3)cc2)c[nH]1)C(C)C` [JLR-1] and `COC(=O)N[C@H](C(=O)N1CCC[C@H]1c1nc(-c2ccc(-c3ccc(-c4nc([C@@H]5CCCN5C(=O)[C@@H](NC(=O)OC)C(C)C)[nH]c4I)cc3)cc2)c[nH]1)C(C)C` [JLR-2] fall in the same range of EC50: 0.001 to 0.01 nM for the first, 0.001 to 0.01 nM for the second.

`COC(=O)N[C@@H](C(=O)N1[C@@H]2C[C@@H]2C[C@H]1c1nc(-c2ccc(-c3ccc(-c4nc([C@@H]5C[C@H]6C[C@H]6N5C(=O)[C@H](NC(=O)OC)[C@@H]5CCCOC5)[nH]c4Cl)cc3)cc2)c(Cl)[nH]1)[C@@H]1CCCOC1` [ZY4, dimethyl(S,1R,1′R)-2,2′-((1R,1′R,3S,3′S,5R,5′R)-3,3′-(4,4′-(biphenyl-4,4′-diyl)bis(5-chloro-1H-imidazole-4,2-diyl))bis(2-azabicyclo[3.1.0]hexane-3,2-diyl))bis(2-oxo-1-((S)-tetrahydro-2H-pyran-3-yl)ethane-2,1-diyl)dicarbamate] and `COC(=O)N[C@H](C(=O)N1[C@@H]2C[C@@H]2C[C@H]1c1nc(-c2ccc(-c3ccc(-c4nc([C@@H]5C[C@H]6C[C@H]6N5C(=O)[C@@H](NC(=O)OC)[C@H]5CCCOC5)[nH]c4Cl)cc3)cc2)c(Cl)[nH]1)[C@H]1CCCOC1` [ZY2, dimethyl(R,1S,1′S)-2,2′-((1R,1′R,3S,3′S,5R,5′R)-3,3′-(4,4′-(biphenyl-4,4′-diyl)bis(5-chloro-1H-imidazole-4,2-diyl))bis(2-azabicyclo[3.1.0]hexane-3,2-diyl))bis(2-oxo-1-((R)-tetrahydro-2H-pyran-3-yl)ethane-2,1-diyl)dicarbamate] fall in the same range of EC50: 0.001 to 0.01 nM for the first, 0.001 to 0.01 nM for the second.

First: COC(=O)N[C@H](C(=O)N1CCC[C@H]1c1ncc(-c2ccc(-c3ccc(-c4[nH]c([C@@H]5CCCN5C(=O)[C@@H](NC(=O)OC)C(C)C)nc4-c4ccnn4C)cc3)cc2)[nH]1)C(C)C [OL19]
Second: C=CCc1nc([C@@H]2CCCN2C(=O)[C@@H](NC(=O)OC)C(C)C)[nH]c1-c1ccc(-c2ccc(-c3cnc([C@@H]4CCCN4C(=O)[C@@H](NC(=O)OC)C(C)C)[nH]3)cc2)cc1 [OL15]
The EC50 of the first is higher: 0.01 to 0.1 nM for the first, 0.001 to 0.01 nM for the second.

`COC(=O)N[C@H](C(=O)N1C[C@@H](C)C[C@H]1c1ncc(-c2ccc(-c3ccc(-c4[nH]c([C@@H]5C[C@H](C)CN5C(=O)[C@@H](NC(=O)OC)C5CCOCC5)nc4Cl)cc3)cc2)[nH]1)C1CCOCC1` [GW4] and `C=CCc1cc([C@@H]2CCCN2C(=O)[C@@H](NC(=O)OC)C2CCOCC2)[nH]c1-c1ccc(-c2ccc(-c3cnc([C@@H]4CCCN4C(=O)[C@@H](NC(=O)OC)C4CCOCC4)[nH]3)cc2)cc1` [OL16] fall in the same range of EC50: 0.01 to 0.1 nM for the first, 0.01 to 0.1 nM for the second.

`COC(=O)N[C@@H](C(=O)N1[C@@H]2C[C@@H]2C[C@H]1c1nc(-c2ccc(-c3ccc(-c4nc([C@@H]5C[C@H]6C[C@H]6N5C(=O)[C@H](NC(=O)OC)[C@@H]5CCCOC5)[nH]c4Cl)cc3)cc2)c[nH]1)[C@H]1CCCOC1` [ZY5] and `COC(=O)NC(C(=O)N1[C@@H]2C[C@@H]2C[C@H]1c1nc(-c2ccc(-c3ccc(-c4nc([C@@H]5C[C@H]6C[C@H]6N5C(=O)[C@H](NC(=O)OC)[C@H]5CCCOC5)[nH]c4Cl)cc3)cc2)c(Cl)[nH]1)[C@@H]1CCCOC1` (stereo partly drawn) [ZY3, dimethyl(R,1R,1′R)-2,2′-((1R,1′R,3S,3′S,5R,5′R)-3,3′-(4,4′-(biphenyl-4,4′-diyl)bis(5-chloro-1H-imidazole-4,2-diyl))bis(2-azabicyclo[3.1.0]hexane-3,2-diyl))bis(2-oxo-1-((R)-tetrahydro-2H-pyran-3-yl)ethane-2,1-diyl)dicarbamate] fall in the same range of EC50: 0.001 to 0.01 nM for the first, 0.001 to 0.01 nM for the second.

`COCC[C@H](NC(=O)OC)C(=O)N1[C@@H]2C[C@@H]2C[C@H]1c1nc(-c2ccc(-c3ccc(-c4nc([C@@H]5C[C@H]6C[C@H]6N5C(=O)[C@H](CCOC)NC(=O)OC)[nH]c4Cl)cc3)cc2)c(Cl)[nH]1` [ZY7, dimethyl (2S,2′S)-1,1′-((1R,1′R,3S,3′S,5R,5′R)-3,3′-(4,4′-(biphenyl-4,4′-diyl)bis(5-chloro-1H-imidazole-4,2-diyl))bis(2-azabicyclo[3.1.0]hexane-3,2-diyl))bis(4-methoxy-1-oxobutane-2,1-diyl)dicarbamate] and `COC(=O)N[C@H](C(=O)N1[C@@H]2C[C@@H]2C[C@H]1c1nc(-c2ccc(-c3ccc(-c4nc([C@@H]5C[C@H]6C[C@H]6N5C(=O)[C@@H](NC(=O)OC)[C@@H]5CCCOC5)[nH]c4Cl)cc3)cc2)c(Cl)[nH]1)[C@@H]1CCCOC1` [ZY1, dimethyl(S,1S,1′S)-2,2′-((1R,1′R,3S,3′S,5R,5′R)-3,3′-(4,4′-(biphenyl-4,4′-diyl)bis(5-chloro-1H-imidazole-4,2-diyl))bis(2-azabicyclo[3.1.0]hexane-3,2-diyl))bis(2-oxo-1-((S)-tetrahydro-2H-pyran-3-yl)ethane-2,1-diyl)dicarbamate] fall in the same range of EC50: 0.001 to 0.01 nM for the first, 0.001 to 0.01 nM for the second.

In the case of `COC(=O)NC(C(=O)N1[C@@H]2C[C@@H]2C[C@H]1c1nc(-c2ccc(-c3ccc(-c4[nH]c([C@@H]5C[C@H]6C[C@H]6N5C(=O)C(NC(=O)OC)[C@H]5C[C@@H](C)O[C@@H](C)C5)nc4Cl)cc3)cc2)c[nH]1)[C@H]1C[C@@H](C)O[C@@H](C)C1` (stereo partly shown) [OL6], the EC50 is reported as 0.001 to 0.01 nM.
